Assay type in all cases: cell-based
Test [1] has as its system breast cancer (BT-474). The test can be described thus: Anticancer activity assay (WST-8 cell growth), BT-474. As to conditions: Homo sapiens, read-out: IC50 (nM) BT-474. Here is the method: (§1) The compounds of the present invention were assayed for inhibitory activity against 7 cancer cell lines as breast cancer (BT-474), human epithelial cancer (A-431), non-small cell lung cancer (NCI-H460), colon cancer (HT-29), colon cancer (SW-620), breast cancer (MDA-MB-231) and breast cancer (MCF-7).
(§2) Briefly, a suspension of each cancer cell line was serially diluted, and plated at a density of 2˜3×10^3 cells/well into 96-well microplates, followed by incubation at 37° C. for 4 day in a 5% CO2 atmosphere. Cell growth in a monolayer was measured using WST-8 reagemt (Dojindo, Japan).
(§3) IC50 values of the compounds against the cancer cell lines were calculated as compound concentrations at which the cells were grown by 50% OD of the control.
Background: Tetrazolium dyes change colour on reduction, which living cells bring about.

For test [2], the system named is human epithelial cancer (A-431). Briefly: Anticancer activity assay (WST-8 cell growth), A-431. How it is done:
as §1, §2, §3

Test [3] relates to breast cancer (MCF-7). The test can be described thus: Anticancer activity assay (WST-8 cell growth), MCF-7. As to conditions: read-out: IC50 (nM) MCF-7. How it is done:
as §1, §2, §3

For test [4], the system named is colon cancer (SW-620). The test can be described thus: Anticancer activity assay (WST-8 cell growth), SW-620. As to conditions: read-out: IC50 (nM) SW-620. Here is the method: as §1, §2, §3
Test [5] has as its system non-small cell lung cancer (NCI-H460). Briefly: Anticancer activity assay (WST-8 cell growth), NCI-H460. The conditions noted are these: read-out: IC50 (nM) NCI-H460. How it is done: as §1, §2, §3
Test [6] deals with colon cancer (HT-29). The test can be described thus: Anticancer activity assay (WST-8 cell growth), HT-29. As to conditions: read-out: IC50 (nM) HT-29. Here is the method:
as §1, §2, §3

Test [7] relates to breast cancer (MDA-MB-231). The test can be described thus: Anticancer activity assay (WST-8 cell growth), MDA-MB-231. The conditions noted are these: read-out: IC50 (nM) MDA-MB-231. Here is the method:
as §1, §2, §3

Where [8] appears, read: A-431, 96 h, read-out: IC50 (nM) A-431.

Where two headings read alike, the source gives them in different places.

As usually defined, the IC50 is the midpoint of a concentration-inhibition curve. `CC[C@H](C)[C@@H]([C@@H](CC(=O)N1C[C@H](OC)C[C@H]1[C@H](OC)[C@@H](C)C(=O)NCC(=O)c1ccc(OC)cc1)OC)N(C)C(=O)[C@@H](NC(=O)[C@@H](NC)C(C)C)C(C)C` (stereo in doubt) [Compound I-5, (2S)—N-((3R,4S)-3-methoxy-1-((2R,4R)-4-methoxy-2-((1R,2R)-1-methoxy-3-((2-(4-methoxyphenyl)-2-oxoethyl)amino)-2-methyl-3-oxopropyl)pyrrolidin-1-yl)-5-methyl-1-oxoheptan-4-yl)-N,3-dimethyl-2-((S)-3-methyl-2-(methylamino)butaneamido)butanamide]: the IC50 was determined as 0.53 nM in test [1] (BT-474, 96 h) and 61.2 nM in test [2] (setting [8]).
The matching figures for `CC[C@H](C)[C@@H]([C@@H](CC(=O)N1C[C@H](OC)C[C@@H]1[C@H](OC)[C@@H](C)C(=O)NCCc1ccc(F)cc1)OC)N(C)C(=O)[C@@H](NC(=O)[C@@H](NC)C(C)C)C(C)C` [Compound I-3, (S)—N-((3R,4S,5S)-1-((2R,4R)-2-((1R,2R)-3-((4-fluorophenethyl)amino)-1-methoxy-2-methyl-3-oxopropyl)-4-methoxypyrrolidin-1-yl)-3-methoxy-5-methyl-1-oxoheptan-4-yl)-N,3-dimethyl-2-((S)-3-methyl-2-(methylamino)butaneamido)butanamide]: 1.1 nM and 37.9 nM.
The matching figures for `CC[C@H](C)[C@@H]([C@@H](CC(=O)N1C[C@H](OC)CC1[C@H](OC)[C@@H](C)C(=O)NCCc1cc(F)c(Cl)cc1Cl)OC)N(C)C(=O)[C@@H](NC(=O)[C@@H](NC)C(C)C)C(C)C` (stereo partly drawn) [Compound I-4]: 2.44 nM and 21.1 nM.
Turning to `CC[C@H](C)[C@@H]([C@@H](CC(=O)N1C[C@H](O)C[C@@H]1[C@H](OC)[C@@H](C)C(=O)NCCc1ccccc1)OC)N(C)C(=O)[C@@H](NC(=O)[C@H](C(C)C)N(C)C)C(C)C` [Compound I-8, (S)-2-((S)-2-(dimethylamino)-3-methylbutaneamido)-N-((3R,4S,5S)-1-((2R,4R)-4-hydroxy-2-((1R,2R)-1-methoxy-2-methyl-3-oxo-3-(phenethylamino)propyl)pyrrolidin-1-yl)-3-methoxy-5-methyl-1-oxoheptan-4-yl)-N,3-dimethylbutanamide], the IC50 in test [3] (Homo sapiens, MCF7, 96 h) amounted to 27 nM; in test [4] (Homo sapiens, SW-620, 96 h) it was 2.9 nM; in test [1] (BT-474, 96 h) it was 0.68 nM; in test [5] (Homo sapiens, NCI-H460, 96 h) it was 1.5 nM.
The corresponding values for `CC[C@H](C)[C@@H]([C@@H](CC(=O)N1CC(=O)C[C@@H]1[C@H](OC)[C@@H](C)C(=O)NCCc1ccccc1)OC)N(C)C(=O)[C@@H](NC(=O)[C@H](C(C)C)N(C)C)C(C)C` [Compound I-9, (S)-2-((S)-2-(dimethylamino)-3-methylbutaneamido)-N-((3R,4S,5S)-3-methoxy-1-((R)-2-((1R,2R)-1-methoxy-2-methyl-3-oxo-3-(phenethylamino)propyl)-4-oxopyrrolidin-1-yl)-5-methyl-1-oxoheptan-4-yl)-N,3-dimethylbutanamide] are 27 nM, 27.7 nM, 5.23 nM and 10.9 nM.
In the case of `CC[C@H](C)[C@@H]([C@@H](CC(=O)N1C[C@@H](OC)C[C@H]1[C@H](OC)[C@@H](C)C(=O)NCCc1ccccc1)OC)N(C)C(=O)[C@@H](NC(=O)[C@@H](NC)C(C)C)C(C)C` [Compound I-33, (2S)—N-((3R,4S)-3-methoxy-1-((2S,45)-4-methoxy-2-((1R,2R)-1-methoxy-2-methyl-3-oxo-3-(phenethylamino)propyl)pyrrolidin-1-yl)-5-methyl-1-oxoheptan-4-yl)-N,3-dimethyl-2-((S)-3-methyl-2-(methylamino)butaneamido)butanamide], the IC50 was determined as 2.82 nM in test [6] (Homo sapiens, HT-29, 96 h); 1.82 nM in test [3] (Homo sapiens, MCF7, 96 h); 5.49 nM in test [4] (Homo sapiens, SW-620, 96 h); 0.68 nM in test [1] (BT-474, 96 h); 2.23 nM in test [7] (Homo sapiens, MDA-MB-231, 96 h); 9.4 nM in test [5] (Homo sapiens, NCI-H460, 96 h).
Turning to `CC[C@H](C)[C@@H]([C@@H](CC(=O)N1C[C@H](OC)C[C@H]1[C@H](OC)[C@@H](C)C(=O)NCC(O)c1ccccc1)OC)N(C)C(=O)[C@@H](NC(=O)[C@@H](NC)C(C)C)C(C)C` (stereo partly drawn) [Compound I-35, (2S)—N-((3R,4S)-1-((2S,4R)-2-((1R,2R)-3-(2-(2-hydroxy-2-phenylethyl)amino)-1-methoxy-2-methyl-3-oxopropyl)-4-methoxypyrrolidin-1-yl)-3-methoxy-5-methyl-1-oxoheptan-4-yl)-N,3-dimethyl-2-((S)-3-methyl-2-(methylamino)butaneamido)butanamide], the IC50 in test [6] (Homo sapiens, HT-29, 96 h) was determined as 4.2 nM; in test [4] (Homo sapiens, SW-620, 96 h), 2.1 nM; in test [1] (BT-474, 96 h), 0.23 nM; in test [5] (Homo sapiens, NCI-H460, 96 h), 1.5 nM.
Consider `COc1cccc2c1C(=O)c1c(O)c3c(c(O)c1C2=O)C[C@@](O)(C(=O)CO)C[C@@H]3O[C@H]1C[C@H](N)[C@H](O)[C@H](C)O1` [Doxorubcin, reference compound], for which the IC50 in test [6] (HT-29 cells, 4 day incubation, WST-8) was found to be 1.81 nM; in test [3] (MCF-7 cells, 4 day incubation, WST-8) it was 460 nM; in test [4] (SW-620 cells, 4 day incubation, WST-8), 290 nM; in test [7] (MDA-MB-231 cells, 4 day incubation, WST-8), 850 nM; in test [5] (NCI-H460 cells, 4 day incubation, WST-8), 150 nM.
Regarding `CC(=O)O[C@H]1C(=O)[C@@]2(C)[C@H]([C@H](OC(=O)c3ccccc3)[C@]3(O)C[C@H](OC(=O)[C@H](O)[C@@H](NC(=O)c4ccccc4)c4ccccc4)C(C)=C1C3(C)C)[C@]1(OC(C)=O)CO[C@@H]1C[C@@H]2O` [Paclitaxel, reference compound], the IC50 was 19.5 nM in test [6] (Homo sapiens, 96 h, HT-29 cells, 4 day incubation, WST-8); 27.1 nM in test [3] (Homo sapiens, MCF7, 96 h, MCF-7 cells, 4 day incubation, WST-8); 26.8 nM in test [4] (Homo sapiens, 96 h, SW-620 cells, 4 day incubation, WST-8); 14.4 nM in test [1] (96 h, BT-474 cells, 4 day incubation, WST-8); 90 nM in test [7] (Homo sapiens, 96 h, MDA-MB-231 cells, 4 day incubation, WST-8); 442 nM in test [2] (96 h, A-431 cells, 4 day incubation, WST-8, read-out: IC50 (nM) A-431). In addition, the IC50 in test [5] (Homo sapiens, 96 h, NCI-H460 cells, 4 day incubation, WST-8) came out at 26.8 nM.

The record behind these values is US9278996B2, “Dolastatin-10 derivative, method of producing the same and anticancer drug composition containing the same” (CELLTRION, INC., priority 2012, dated 2016).
